Laboratory results reported in article PMC6315490, “Angucycline Glycosides from an Intertidal Sediments Strain Streptomyces sp. and Their Cytotoxic Activity against Hepatoma Carcinoma Cells” (Marine Drugs, 2018).
“Also recorded” adds a separate entry of the source.

Legend:
Format in all cases: cell-based
[1] = system: hepatoma carcinoma SMMC-7721 cells; test: MTT cytotoxicity assay, SMMC-7721; settings: Homo sapiens, MTT method
Description: (§1) Though, the distinct in vivo toxicity restricted the further development of these compounds to be clinical drugs. Recently, an atypical angucycline, lomaiviticin A, was reported to be under preclinical evaluation for antitumor treatment due to its prominent cytotoxicity and effects of inducing double-strand breaks in DNA [14, 23]. In present work, 1–4 were assayed for their cytotoxic activity against normal liver cell LO2, hepatoma carcinoma HepG-2, SMMC-7721 and plc-prf-5 cell lines by 3-(4,5-dimethylthiazol-2-yl)-2,5-diphenyltetrazolium bromide (MTT) method (Table 2).
(§2) The cytotoxicity evaluations of 1–4 against normal liver cell and hepatoma carcinoma cells were carried out using the 3-(4,5-dimethylthiazole-2-yl)-2,5-diphenyltetrazolium bromide (MTT) assay. Doxorubicin was used as positive control drug and deionized H2O with the same DMSO concentration was used as parallel control. DAPI staining test was employed to qualitatively observe apoptosis, and the apoptotic ratio was measured by flow cytometric analysis (Becton Dickinson FACScan, San Jose, CA, USA). These tests were conducted using the methods as previously described.

[2] = system: hepatoma carcinoma plc-prf-5 cells; test: MTT cytotoxicity assay, plc-prf-5; settings: Homo sapiens, MTT method
Description: as §1, §2

[3] = system: hepatoma carcinoma HepG-2 cells; test: MTT cytotoxicity assay, HepG-2; settings: Homo sapiens, HepG2, MTT method
Description: as §1, §2

[4] = MTT cytotoxicity assay, normal liver cell LO2; settings: human; MTT method; LO2 normal liver cells
Description: as §1, §2

[5] = system: SMMC-7721 cells; test: Flow cytometric analysis of apoptosis; settings: Figure 5b
Description: as §1
(§3) Figure 5 (a) Fluorescence micrographs of untreated and saquayamycin B-treated SMMC-7721 cells (24 h) stained with DAPI, Magnification: 100×; (b) Quantification of saquayamycin B-induced apoptosis in SMMC-7721 cell using flow cytometric analysis. ** p < 0.01 versus saquayamycin B 0 μM group. […]
(§4) The cytotoxicity evaluations of 1–4 against normal liver cell and hepatoma carcinoma cells were carried out using the 3-(4,5-dimethylthiazole-2-yl)-2,5-diphenyltetrazolium bromide (MTT) assay. […] DAPI staining test was employed to qualitatively observe apoptosis, and the apoptotic ratio was measured by flow cytometric analysis (Becton Dickinson FACScan, San Jose, CA, USA). […]

[6] = system: SMMC-7721 cells; test: DAPI staining test for apoptosis; settings: 0.025 to 0.100 μM for 24 h
Description: as §1, §3, §4

`Cc1cc(O)c2c3c(cc(O)c2c1)C(=O)c1c(ccc(C2CC4OC5CC(=O)C(C)OC5OC4C(C)O2)c1O)C3=O` (stereo not shown) [Compound 1, landomycin N] gave an IC50 [1] greater than 40000 nM, an IC50 [2] greater than 40000 nM and an IC50 [3] greater than 40000 nM. For the same compound, the IC50 [4] was greater than 40000 nM.

With `Cc1cc(O)c2cc3c(c(O)c2c1)C(=O)c1ccc(C2CC4OC5CC(=O)C(C)OC5OC4C(C)O2)c(O)c1C3=O` (stereo not shown) [Compound 2, galtamycin C] the IC50 [1] was greater than 40000 nM, the IC50 [2] was greater than 40000 nM and the IC50 [3] was greater than 40000 nM. It also gave an IC50 [4] greater than 40000 nM.

`CC1OC(OC2CCC(OC(C)(CC(=O)O)Cc3ccc4c(c3O)C(=O)c3ccc(C5CC6OC7CC(=O)C(C)OC7OC6C(C)O5)c(O)c3C4=O)OC2C)C=CC1=O` (stereo not shown) [Compound 3, vineomycin D] showed an IC50 [1] greater than 40000 nM, an IC50 [2] greater than 40000 nM and an IC50 [3] greater than 40000 nM. For the same compound, the IC50 [4] was greater than 40000 nM.

`CC1OC(OC2CCC(OC3(C)CC(=O)C4(O)C5=C(C=CC4(O)C3)C(=O)c3c(ccc(C4CC6OC7CC(=O)C(C)OC7OC6C(C)O4)c3O)C5=O)OC2C)C=CC1=O` (stereo not shown) [Compound 4, saquayamycin B] gave an IC50 [1] of 33 ± 5 nM, an IC50 [2] of 244 ± 1 nM and an IC50 [3] of 135 ± 56 nM. The IC50 [4] was 343 ± 81 nM, the “Apoptotic ratio of SMMC-7721 cells (flow cytometry), concentration dependence” value [5] was “dependent on the concentrations of saquayamycin B” and the “Apoptosis by morphological characteristics in DAPI staining” value [6] was “chromatin dispersion and formation of apoptotic body; also recorded: induced apoptosis in SMMC-7721 cells”.

`COc1cccc2c1C(=O)c1c(O)c3c(c(O)c1C2=O)C[C@@](O)(C(=O)CO)C[C@@H]3O[C@H]1C[C@H](N)[C@H](O)[C@H](C)O1` [Doxorubicin, reference compound] showed an IC50 [1] of 706 ± 4 nM, an IC50 [2] of 1030 ± 990 nM and an IC50 [3] of 919 ± 599 nM. For the same compound, the IC50 [4] was 2260 ± 160 nM.
